Test results published in patent US11254654B2, “Heterochromatin gene repression inhibitors” (The University of North Carolina at Chapel Hill, priority 2017, dated 2022).
Counter-ions that a name gives are not always drawn.

Columns and labels:
TC1 ES cells = test: Whole cell histone modification levels, Western blot densitometry; type: cell-based; details: 48 hrs with compound, normalized over total Histone H4
Method: The ability to reduce global H3K9-me2 and -me3 levels with the novel HP1 inhibitors was previously examined (see FIG. 20). […] Oct4-GFP will be measured by flow cytometry, H3K9me3 enrichment by ChIP, and DNA methylation levels by bisulfite sequencing at 2, 4, and 6 days post RA addition output measurements. Expression and chromatin modifications will also be examined at other RA regulated genes such as […] using GAPDH as a control.
Referring to FIG. 20, TC1 ES cells were incubated 48 hrs with compound. Histones marks were measured by Western blot densitometry with the indicated antibody. The results were normalized over the total Histone H4 as a percentage of untreated controls.

[1] = test system: HP1 heterochromatin pathway; test: Small molecule high-throughput flow cytometry screen, CiA:Oct4 N118/N163 cells with rapamycin (csHP1α recruitment); type: cell-based, mouse; details: 10 μM compound, + 6 nM rapamycin, 48 hrs
Source text: The CiA:Oct4 recruitment system in mouse embryonic stem cells contains Gal4 and Zinc finger DNA binding arrays and a downstream nuclear eGFP gene in place of a single Oct4 allele as previously described (Hathaway et al., 2012). The CiA:Oct4 N118/N163 cell line containing viral integrations of N118 and N163 plasmids (N118-nLV EF-1α-Gal-FKBPx1-HA-PGK-Blast, N163-nLV EF-1α-HP1α (CS)-Frbx2(Frb+FrbWobb)-V5-PGK-Puro) was used for all experiments unless otherwise stated. The CiA:Oct4 N205 line containing the lentiviral construct N205 (N205-nLV EF-1α-ZFHD1-link-FKBP-HA <T2A> HP1αCS-Frbx2-V5-PGK-Blast) was used for shRNA experiments. CiA:Oct4 N118 was infected with the lentiviral construct N192 (N192-nLV Dual Promoter EF-1α-MCS-PGK-Puro HP1γ-(CS)-Frbx2(wobbmo)-V5) to yield the csHP1γ recruitment system CiA:Oct4 N118/N192. For orthogonal recruitment system, stable mESC cell line with blue fluorescent protein (BFP) reporter gene with tetracycline response elements (TRE) was generated by recombinase-mediated cassette exchange, by introducing the reporter cassette DNA in plasmid YR06 into a genetrap located on chromosome 15 at genome coordinates chr15:99941948 (Lienert et al. (2011) Nature Genetics 43(11): 1091-1097; Elling et al. (2017) Nature 550(7674): 114-118). […]
Flow cytometry was performed using an Intellicyt iQue Screener and analyzed with FlowJo software. […]

COc1cc2nc(N3CCCC3)nc(N[C@H]3CCCNC3)c2cc1OC [compound 1, (S)-6,7-Dimethoxy-N-(Piperidin-3-yl)-2-(Pyrrolidin-1-yl)Quinazolin-4-Amine Trifluoroacetic Acid Salt]
Bulk di- and tri-H3K9 methylation (TC1 ES cells): significantly block
GFP expression / % GFP (+) population despite csHP1α recruitment [1]: increased expression of GFP
